Key:
Mus musculus = test: Antinociceptive activity in albino Mus musculus (mouse) assessed as increase in latency for tail withdrawal at 20 mg/kg, po measured after 4 hr by thermal stimulus method relative to control; format: functional
Rattus norvegicus [1] = test: Anti-inflammatory activity in albino Rattus norvegicus (rat) assessed as inhibition of carrageenan-induced paw edema at 25 mg/kg, po administered 1 hr prior to carrageenan-challenge measured after 1 to 3 hr relative to control; format: functional
[2] = Toxicity in ip dosed albino Mus musculus (mouse) measured after 24 hr; format: organism-based; details: in vivo, read-out: ALD50
[3] = Ulcerogenic activity in ip dosed fasted albino Rattus norvegicus (rat) measured after 8 hr; format: toxicity, organism-based; details: in vivo, read-out: UD50
Rattus norvegicus [4] = test: Anti-inflammatory activity in albino Rattus norvegicus (rat) assessed as inhibition of carrageenan-induced paw edema at 100 mg/kg, po administered 1 hr prior to carrageenan-challenge measured after 1 to 3 hr relative to control; format: functional
Rattus norvegicus [5] = test: Anti-inflammatory activity in albino Rattus norvegicus (rat) assessed as inhibition of carrageenan-induced paw edema at 50 mg/kg, po administered 1 hr prior to carrageenan-challenge measured after 1 to 3 hr relative to control; format: functional

For `CC1=C(C(=O)Nc2ccc(F)cc2)C(c2ccc(Br)cc2)n2c(s/c(=C/c3ccccc3)c2=O)=N1` (centres undefined), the Activity (Mus musculus) was 76% and the inhibition in vivo at 25 mg/kg (Rattus norvegicus [1]) was 5%.

With `CC1=C(C(=O)Nc2ccc(F)cc2)C(c2ccc(Br)cc2)n2c(s/c(=C/c3ccc(Cl)cc3)c2=O)=N1` (centres undefined) the Activity (Mus musculus) was 104% and the inhibition in vivo at 25 mg/kg (Rattus norvegicus [1]) was 25%.

Work on `CC1=C(C(=O)Nc2ccc(F)cc2)C(c2ccccc2[N+](=O)[O-])n2c(s/c(=C/c3ccccc3Cl)c2=O)=N1` (centres undefined) yielded an Activity (Mus musculus) of 72% and an inhibition in vivo at 25 mg/kg (Rattus norvegicus [1]) of 12%.

`CC1=C(C(=O)Nc2ccc(F)cc2)C(c2ccc(Cl)cc2)n2c(s/c(=C/c3ccc(Br)cc3)c2=O)=N1` (centres undefined) gave an Activity (Mus musculus) of 76% and an inhibition in vivo at 25 mg/kg (Rattus norvegicus [1]) of 35%.

Work on `O=C(O)Cc1ccccc1Nc1c(Cl)cccc1Cl` [DICLOFENAC] yielded an Activity (Mus musculus) of 274%.

Molecule `CC1=C(C(=O)Nc2ccc(F)cc2)C(c2ccc(F)cc2)n2c(s/c(=C/c3ccccc3Cl)c2=O)=N1` (centres undefined) has an Activity (Mus musculus) of 119% and an inhibition in vivo at 25 mg/kg (Rattus norvegicus [1]) of 19%.

In the case of `CC1=C(C(=O)Nc2ccc(F)cc2)C(c2ccc([N+](=O)[O-])cc2)n2c(s/c(=C/c3ccccc3Cl)c2=O)=N1` (centres undefined), the Activity (Mus musculus) is reported as 140% and the inhibition in vivo at 25 mg/kg (Rattus norvegicus [1]) is reported as 19%.

Work on `CC1=C(C(=O)Nc2ccc(F)cc2)C(c2ccc([N+](=O)[O-])cc2)n2c(s/c(=C/c3ccc(Cl)cc3)c2=O)=N1` (centres undefined) yielded an Activity (Mus musculus) of 104% and an inhibition in vivo at 25 mg/kg (Rattus norvegicus [1]) of 23%.

`CC1=C(C(=O)Nc2ccc(F)cc2)C(c2ccc(Br)cc2)n2c(s/c(=C/c3ccc(Cl)cc3Cl)c2=O)=N1` (centres undefined) showed an Activity (Mus musculus) of 31% and an inhibition in vivo at 25 mg/kg (Rattus norvegicus [1]) of 14%.

With `CC1=C(C(=O)Nc2ccc(F)cc2)C(c2ccc(F)cc2)n2c(s/c(=C/c3ccc([N+](=O)[O-])cc3)c2=O)=N1` (centres undefined) the Activity (Mus musculus) was 121% and the inhibition in vivo at 25 mg/kg (Rattus norvegicus [1]) was 30%.

`CC1=C(C(=O)Nc2ccc(F)cc2)C(c2ccccc2[N+](=O)[O-])n2c(s/c(=C/c3ccc(Br)cc3)c2=O)=N1` (centres undefined) gave an Activity (Mus musculus) of 100% and an inhibition in vivo at 25 mg/kg (Rattus norvegicus [1]) of 16%.

Molecule `CC1=C(C(=O)Nc2ccc(F)cc2)C(c2ccc(Br)cc2)n2c(s/c(=C/c3ccc(C)cc3)c2=O)=N1` (centres undefined) has an Activity (Mus musculus) of 72% and an inhibition in vivo at 25 mg/kg (Rattus norvegicus [1]) of 11%.

With `CC1=C(C(=O)Nc2ccc(F)cc2)C(c2ccc(F)cc2)n2c(s/c(=C/c3ccc(Cl)cc3)c2=O)=N1` (centres undefined) the LD50 at 24 h [2] was > 1000 mg/kg, the TD50 at 8 h [3] was 175 mg/kg and the Activity (Mus musculus) was 189%. It also gave an inhibition in vivo at 100 mg/kg (Rattus norvegicus [4]) of 78%, an inhibition in vivo at 50 mg/kg (Rattus norvegicus [5]) of 50% and an inhibition in vivo at 25 mg/kg (Rattus norvegicus [1]) of 47%.

For `CC1=C(C(=O)Nc2ccc(F)cc2)C(c2ccc(Cl)cc2)n2c(s/c(=C/c3ccccc3[N+](=O)[O-])c2=O)=N1` (centres undefined), the Activity (Mus musculus) was 82% and the inhibition in vivo at 25 mg/kg (Rattus norvegicus [1]) was 16%.

Work on `CC1=C(C(=O)Nc2ccc(F)cc2)C(c2ccc([N+](=O)[O-])cc2)n2c(s/c(=C/c3ccc(Cl)cc3Cl)c2=O)=N1` (centres undefined) yielded an Activity (Mus musculus) of 121% and an inhibition in vivo at 25 mg/kg (Rattus norvegicus [1]) of 17%.

Molecule `CC1=C(C(=O)Nc2ccc(F)cc2)C(c2ccc(Cl)cc2)n2c(s/c(=C/c3ccccc3Cl)c2=O)=N1` (centres undefined) has an Activity (Mus musculus) of 63% and an inhibition in vivo at 25 mg/kg (Rattus norvegicus [1]) of 16%.

Work on `CC1=C(C(=O)Nc2ccc(F)cc2)C(c2ccc([N+](=O)[O-])cc2)n2c(s/c(=C/c3ccccc3)c2=O)=N1` (centres undefined) yielded an Activity (Mus musculus) of 93% and an inhibition in vivo at 25 mg/kg (Rattus norvegicus [1]) of 7%.

For `CC1=C(C(=O)Nc2ccc(F)cc2)C(c2ccc(Cl)cc2)n2c(s/c(=C/c3ccc(Cl)cc3Cl)c2=O)=N1` (centres undefined), the Activity (Mus musculus) was 46% and the inhibition in vivo at 25 mg/kg (Rattus norvegicus [1]) was 14%.

Work on `COc1ccc(/C=c2/sc3n(c2=O)C(c2ccc([N+](=O)[O-])cc2)C(C(=O)Nc2ccc(F)cc2)=C(C)N=3)cc1` (centres undefined) yielded an Activity (Mus musculus) of 46% and an inhibition in vivo at 25 mg/kg (Rattus norvegicus [1]) of 12%.

For `COc1ccc(/C=c2/sc3n(c2=O)C(c2ccc(Br)cc2)C(C(=O)Nc2ccc(F)cc2)=C(C)N=3)cc1OC` (centres undefined), the Activity (Mus musculus) was 23% and the inhibition in vivo at 25 mg/kg (Rattus norvegicus [1]) was 8%.

With `CCCCC1C(=O)N(c2ccccc2)N(c2ccccc2)C1=O` [PHENYLBUTAZONE] the LD50 at 24 h [2] was > 1000 mg/kg, the TD50 at 8 h [3] was 70.2 mg/kg and the inhibition in vivo at 100 mg/kg (Rattus norvegicus [4]) was 70%. It also gave an inhibition in vivo at 50 mg/kg (Rattus norvegicus [5]) of 55% and an inhibition in vivo at 25 mg/kg (Rattus norvegicus [1]) of 43%.

With `CC1=C(C(=O)Nc2ccc(F)cc2)C(c2ccc(Cl)cc2)n2c(s/c(=C/c3ccc(F)cc3)c2=O)=N1` (centres undefined) the LD50 at 24 h [2] was > 1000 mg/kg, the TD50 at 8 h [3] was 240 mg/kg and the Activity (Mus musculus) was 172%. It also gave an inhibition in vivo at 100 mg/kg (Rattus norvegicus [4]) of 80%, an inhibition in vivo at 50 mg/kg (Rattus norvegicus [5]) of 60% and an inhibition in vivo at 25 mg/kg (Rattus norvegicus [1]) of 44%.

From ChEMBL document CHEMBL3046824, “Synthesis and pharmacological evaluation of newer thiazolo [3,2-a] pyrimidines for anti-inflammatory and antinociceptive activity” (Med Chem Res, 2010)
